Test results taken from publication PMC7037732, “Synthesis of Combretastatin A-4 and 3′-Aminocombretastatin A-4 derivatives with Aminoacid Containing Pendants and Study of their Interaction with Tubulin and as Downregulators of the VEGF, hTERT and c-Myc Gene Expression” (Molecules, 2020).

How the values were obtained:
[1] = tested on: HT-29 (human colon adenocarcinoma); assay: Inhibition of cell proliferation (MTT), HT-29; format: cell-based; conditions: Homo sapiens, 48 h of treatment (footnote), average ±SD of three experiments
Source text: (§1) The ability of the synthetic compounds to inhibit cell proliferation was established by means of their IC50 values towards the tumor cell lines HT-29 (human colon adenocarcinoma), MCF-7 (breast adenocarcinoma) and A-549 (human pulmonary adenocarcinoma), as well as towards the nontumor cell line HEK-293 (human embryonic kidney cells). Results for compounds derived from CA-4 are presented in Table 1, along with the calculated selectivity indexes SIA (for HT-29 cell line), SIB (for MCF-7 cell line) and SIc (for A-549 cell line), obtained by dividing the IC50 values of the nontumor cell line (HEK-293) by those of the corresponding tumor cell line. The higher the SI index, the higher the therapeutic safety margin.
(§2) Cell culture media were purchased from Gibco (Grand Island, NY, USA). Fetal bovine serum (FBS) was a product of Harlan-Seralab (Belton, U.K.). Supplements and other chemicals not listed in this section were obtained from Sigma Chemical Co. (St. Louis, MO, USA). Plastics for cell culture were supplied by Thermo Fischer Scientific Inc., Madrid, Spain. All tested compounds were dissolved in DMSO at a concentration of 10 μg/mL and stored at −20 °C until use. HT-29, MCF-7, A-549 and HEK-293 cell lines were maintained in a Dulbecco’s modified Eagle’s medium (DMEM) containing glucose (1 g/L), glutamine (2 mM), penicillin (50 IU/mL), streptomycin (50 μg/mL) and amphotericin B (1.25 μg/mL), supplemented with 10% FBS. Cells from human non-small lung carcinoma (clone A549; ATCC n°: CCL2, MD, USA) were routinely grown at 37 °C in a humidified atmosphere of 5% CO2. Cells were maintained in a standard medium composed of RPMI 1640 (Lonza, Group Ltd., Basel, Switzerland), supplemented with 10% fetal bovine serum (FBS), 2 mM L-glutamine and 1% penicillin and streptomycin (Invitrogen). Cells were free from mycoplasma as determined by MycoAlert tests (Lonza, Group Ltd., Basel, Switzerland).
(§3) A total of 5 × 10^3 HT-29, MCF-7 or HEK-293 cells in a total volume of 100 μL of their respective growth media were incubated with serial dilutions of the tested compounds. The 3-(4,5-dimethylthiazol-2-yl)-2,5-diphenyltetrazolium bromide (MTT; Sigma Chemical Co.) dye reduction assay in a 96-well microplate was used, as previously described. […] The resulting formazan was dissolved in 150 μL of 0.04 N HCl/2-propanol and read at 550 nm. All determinations were carried out in triplicate.

[2] = tested on: MCF-7 (breast adenocarcinoma); assay: Inhibition of cell proliferation (MTT), MCF-7; format: cell-based, human; conditions: Homo sapiens, 48 h of treatment (footnote), average ±SD of three experiments
Source text: as §1, §2, §3

[3] = tested on: A-549 (human pulmonary adenocarcinoma); assay: Inhibition of cell proliferation (MTT), A-549; format: cell-based; conditions: 48 h of treatment (footnote), average ±SD of three experiments
Source text: as §1
as §2, with “Switzerland). […]” for “Switzerland).”

[4] = tested on: HEK-293 (human embryonic kidney cells); assay: Inhibition of cell proliferation (MTT), nontumor HEK-293; format: cell-based; conditions: Homo sapiens, 48 h of treatment (footnote), average ±SD of three experiments
Source text: as §1, §2, §3

A-549 cells = assay: Cell cycle distribution by flow cytometry; format: cell-based, human; conditions: A-549, 24 h; for cells accumulated in the G2/M phase: concentration per compound as in Tables 6 and 7, control 14%
Description: The effects of some CA-4 derivatives on the cell cycle were evaluated in A-549 cells.
The effects of some AmCA-4 derivatives on the cell cycle were also evaluated in A-549 cells.
The supernatant and trypsinated cells were harvested and then centrifuged (1200 rpm, 5 min, 4 °C). The cell pellet was resuspended in 1 mL of cold 70% ethanol for 30 min at −20 °C. Cells were centrifuged (2000 rpm, 5 min, 4 °C) to remove ethanol, and then the cell pellet was resuspended in the staining mix containing 50 µg/mL propidium iodide (Molecular Probes, France) and 100 µg/mL RNAse A (Sigma, France) in PBS for 20 min at room temperature in darkness. Samples were analyzed on a Becton Dickinson FACScan flow cytometer using the CellQuest software, which was also used to determine the percentage of cells in the G2/M phases of the cell cycle. PI was excited at 488 nm, and fluorescence analyzed at 620 nm on channel Fl-2.

purified tubulin = assay: Critical concentration (CrC) for the assembly of purified tubulin in GAB; format: biochemical; conditions: compound 27.5 μM, tubulin 25 μM, glycerol (GAB) and GTP assembly buffer; control 7.9 ± 1.2
Description: The effect on the self-assembly of tubulin was determined by measuring the critical concentration (CrC).

[5] = Homo sapiens, A549, 48 h, Table 1
[6] = Homo sapiens, A549, 48 h, Table 2

Row | SMILES | IC50 ([1]; HT-29, 48 h, Table 1) | IC50 ([2]; MCF7, 48 h, Table 1) | IC50 [3, 5] | IC50 ([4]; HEK293, 48 h, Table 1) | IC50 ([1]; HT-29, 48 h, Table 2) | IC50 ([2]; MCF7, 48 h, Table 2) | IC50 [3, 6] | IC50 ([4]; HEK293, 48 h, Table 2) | CrC (critical concentration) (purified tubulin) | further results
1 | COC(=O)[C@H](Cc1ccccc1)NC(=O)COc1cc(/C=C\c2cc(OC)c(OC)c(OC)c2)ccc1OC [Compound 3.4] | 28 ± 7 µM | 8 ± 2 µM | < 10 µM | 4 ± 1 µM |  |  |  |  |  | IC50 ([3]; Table 1): 9 ± 2 µM; G0/G1 (A-549 cells; 50 μM): 33 ± 4%; G2/M (A-549 cells; 50 μM): 51 ± 2%; S (A-549 cells; 50 μM): 16 ± 5%; cells accumulated in the G2/M phase (A-549 cells): 50–70%
2 | COc1ccc(/C=C\c2cc(OC)c(OC)c(OC)c2)cc1NC(=O)[C@@H](Cc1ccccc1)NC(=O)OCC1c2ccccc2-c2ccccc21 [Compound 9.3] |  |  |  |  | 13 ± 5 µM | 4.5 ± 1.7 µM | 18.5 ± 1.7 µM | 11.2 ± 1.5 µM | 6.6 ± 0.2 µM | 
3 | COC(=O)[C@H](NC(=O)COc1cc(/C=C\c2cc(OC)c(OC)c(OC)c2)ccc1OC)C(C)C [Compound 5.1] | 27 ± 7 µM | 9 ± 3 µM | < 10 µM | 3.9 ± 0.6 µM |  |  |  |  |  | IC50 ([3]; Table 1): 5 ± 1 µM; G0/G1 (A-549 cells; 25 μM): 53 ± 8%; G2/M (A-549 cells; 25 μM): 31 ± 7%; S (A-549 cells; 25 μM): 16 ± 2%
4 | COc1ccc(/C=C\c2cc(OC)c(OC)c(OC)c2)cc1NC(=O)[C@H]1CCCN1 [Compound 10.4] |  |  |  |  | 4.4 ± 1.9 µM | 0.6 ± 0.14 µM | 7.03 ± 0.22 µM | 3 ± 0.6 µM | 8.7 ± 1.2 µM | 
5 | COC(=O)[C@@H](Cc1ccccc1)NC(=O)COc1cc(/C=C\c2cc(OC)c(OC)c(OC)c2)ccc1OC [Compound 5.3] | 12 ± 4 µM | 6 ± 1 µM | 10 ± 3 µM | 3.7 ± 1.6 µM |  |  |  |  |  | G0/G1 (A-549 cells; 50 μM): 38 ± 2%; G2/M (A-549 cells; 50 μM): 43 ± 1%; S (A-549 cells; 50 μM): 19 ± 2%
6 | COc1ccc(/C=C\c2cc(OC)c(OC)c(OC)c2)cc1OCC(=O)N[C@@H](Cc1ccc(O)cc1)C(=O)O [Compound 4.8] |  |  | 30 ± 7 µM |  |  |  |  |  | 8.5 ± 2.0 µM | IC50 ([1]; HT-29, Table 1): 55 ± 5 µM; IC50 ([2]; MCF7, Table 1): 43 ± 7 µM; IC50 ([4]; HEK293, Table 1): 33 ± 1 µM
7 | COc1ccc(/C=C\c2cc(OC)c(OC)c(OC)c2)cc1NC(=O)[C@@H]1CCCN1 [Compound 8.6] |  |  |  |  | 0.7 ± 0.2 µM | 3.1 ± 0.6 µM | 1.2 ± 0.3 µM | 2.4 ± 1.4 µM | 8.4 ± 0.1 µM | 
8 | COc1ccc(/C=C\c2cc(OC)c(OC)c(OC)c2)cc1OCC(=O)N[C@@H](CO)C(=O)O [Compound 4.6] | 39 ± 16 µM | 27 ± 9 µM | 36 ± 4 µM | 17 ± 1 µM |  |  |  |  | 7.9 ± 1.6 µM | 
9 | COc1ccc(/C=C\c2cc(OC)c(OC)c(OC)c2)cc1NC(=O)[C@H](NC(=O)OCC1c2ccccc2-c2ccccc21)C(C)C [Compound 9.1] |  |  |  |  | 5.5 ± 0.7 µM | 4.8 ± 0.5 µM | 7.34 ± 0.23 µM | 5.1 ± 0.7 µM | 8.9 ± 1.5 µM | 
10 | COc1ccc(/C=C\c2cc(OC)c(OC)c(OC)c2)cc1NC(=O)[C@H](N)Cc1ccccc1 [Compound 10.3] |  |  |  |  | 3.9 ± 0.8 µM | 2 ± 0.8 µM | 2.9 ± 0.5 µM | 3.5 ± 0.9 µM | 7.7 ± 2.1 µM | 
11 | COC(=O)[C@H](CO)NC(=O)COc1cc(/C=C\c2cc(OC)c(OC)c(OC)c2)ccc1OC [Compound 3.6] | 9 ± 3 µM | 7 ± 3 µM | 18 ± 4 µM | 7 ± 2 µM |  |  |  |  |  | G0/G1 (A-549 cells; 75 μM): 30 ± 9%; G2/M (A-549 cells; 75 μM): 53 ± 3%; S (A-549 cells; 75 μM): 17 ± 6%; cells accumulated in the G2/M phase (A-549 cells): 50–70%
12 | COC(=O)[C@@H](CC(C)C)NC(=O)COc1cc(/C=C\c2cc(OC)c(OC)c(OC)c2)ccc1OC [Compound 5.2] | 26 ± 1 µM | 16 ± 3 µM | 22 ± 3 µM | 13 ± 3 µM |  |  |  |  |  | G0/G1 (A-549 cells; 100 μM): 43 ± 4%; G2/M (A-549 cells; 100 μM): 34 ± 1%; S (A-549 cells; 100 μM): 23 ± 4%
13 | COc1ccc(/C=C\c2cc(OC)c(OC)c(OC)c2)cc1NC(=O)[C@@H]1CCCN1C(=O)OCC1c2ccccc2-c2ccccc21 [Compound 7.6] |  |  |  |  | 0.32 ± 0.14 µM | 0.058 ± 0.012 µM | 1.33 ± 0.09 µM | 0.13 ± 0.03 µM | 6.0 ± 0.5 µM | 
14 | COc1ccc(/C=C\c2cc(OC)c(OC)c(OC)c2)cc1OCC(=O)N[C@H](C(=O)O)C(C)O (stereo partly drawn) [Compound 4.7] | 34 ± 11 µM | 40 ± 9 µM | 41 ± 3 µM | 23 ± 9 µM |  |  |  |  | 10.1 ± 1.8 µM | 
